According to paper PMC7125202, “Targeting of radioactive platinum-bisphosphonate anticancer drugs to bone of high metabolic activity” (Scientific Reports, 2020):

Columns and labels:
[1] = In vivo biodistribution of radioactive Pt-species, excised tissues by gamma counting; design: species or system C57BL/6N mice; settings: 11.2 MBq i.v.
Text: (§1) The ^195mPt-BP and ^195mPt(NO3)2(en) complexes were reconstituted in sterile saline solution (0.9% NaCl) and administered intravenously in the tail vein of C57BL/6N mice (n = 5 per each platinum complex). All mice received an intravenous injection with a dose of 11.2 ± 0.4 MBq ^195mPt. Immediately after injection and 1, 3, and 7 days after injection, images were acquired with U-SPECT-II/CT(MILabs) as reported previously[54],[55]. Mice were scanned under general anesthesia (isoflurane/O2) for 15 to 60 minutes using the 1.0-mm diameter pinhole mouse high sensitivity collimator tube, followed by a CT scan (spatial resolution […], 65 kV, […]) for anatomical reference. Scans were reconstructed with MILabs reconstruction software using an ordered-subset expectation maximization algorithm, with a voxel size of 0.4 mm. SPECT/CT scans were analyzed and maximum intensity projections were created using the Inveon Research Workplace software (IRW, version 4.1). A 3D volume of interest was drawn using CT threshold to differentiate soft tissue from skeletal tissue and uptake was quantified as the percentage injected dose per gram (%ID/g), assuming a tissue density of 1 g/cm^3. The hot spot in the skeletal tissue region of interest (ROI) was chosen with the location of the edge of the ROI contour representing 75% of maximum intensity. The mice from ^195mPt(NO3)2(en) group were euthanized with CO2 after 3 days due to excessive loss of body weight, whereas mice from treated with ^195mPt-BP were sacrificed at the end of experiments. After euthanizing the animals, blood (approximately 600 mg per mouse), liver, spleen, kidneys, heart, lungs, and bones (femur, humerus, tibia, and spine) were harvested and analyzed with a gamma counter (1470 Wizard, Perkin Elmer).

[2] = micro-SPECT/CT quantification of 195mPt biodistribution; assay type: in vivo, C57BL/6N mice
Text: as §1

[3] = Laser ablation ICP-MS imaging of Pt co-localization with calcium in mice tibia; assay type: in vivo; settings: proximal tibia sections; for percentage of Pt co-localized with calcium: LA-ICP-MS
Method: The experimental procedure was carried out as reported previously. The mice tibias were incubated in neutral buffered formaldehyde for 36 h. Later, tibias were dehydrated in ascending grades of 70% to 100% ethanol and embedded in poly(methyl methacrylate) (pMMA) resin, freshly prepared by mixing 600 mL of methyl methacrylate monomer (Acros Organics BVBA, Geel, Belgium), 60 ml dibutyl phthalate (Merck KGaA, Darmstadt, Germany) and 1.25 g perkadox®16 (Aldrich, Netherlands). The polymerization was followed by cutting serial horizontal sections (perpendicular to the tibia sample) of 5 µm thickness within the trabecular region of interest using an RM2155 microtome with a TC 65 blade (Leica Microsystems GmbH, Wetzlar, Germany). Microscopic images were obtained using an inverted fluorescence/bright field microscope (BZ-9000, Keyence Deutschland GmbH, Neu-Isenburg, Germany). For image recording and processing, the software BZ-II Viewer and BZ-II Analyzer were used, respectively. To calculate the percentage of platinum co-localized with calcium, the background of the image and all pixels without hard bone tissue were excluded from the calculations. A pixel is considered to be background if its calcium intensity is below 15%. The platinum concentrations of the remaining pixels were then added up and divided by the sum of the entire platinum image to yield the percentage of platinum co-localized with calcium.

[4] = Body weight, behaviour and toxicity of mice after injection of radioactive Pt-species; assay type: in vivo, C57BL/6N mice; settings: for body weight and behavioral changes: 11.2 ± 0.4 MBq 195mPt i.v., first 3 days p.i. for 195mPt(NO3)2(en)
Method: All in vivo work was conducted in accordance with ISO standards and the principles set forth by the Revised Dutch Act on Animal Experimentation. The in vivo experiments were approved by the institutional Animal Welfare Committee of the Radboud University Medical Center (Radboudumc), Nijmegen, the Netherlands. For both the experiment, 10 male C57Bl/6N mice (Charles River), with an average weight of ~25 g and an age of approximately 6–8 weeks were housed in filter-topped cages (5 mice per cage) under non-sterile standard conditions provided with standard animal food and water ad libitum. The mice were allowed to adapt to laboratory conditions for 1 week before experimental use. The humane end point were defined as follows, body weight gain of> 20% within 10 days, no water or food intake, weight loss of >15% within 1–2 days or> 20% of normal body weight of that animal, serious circulatory or respiratory problems, behavioural changes (hyperactivity, passive, auto-mutilation), and morbidities such as impaired mobility or lethargy.
as §1, with “The mice from ^195mPt(NO3)2(en) group were euthanized with CO2 after 3 days due to excessive loss of body weight, whereas mice from treated with ^195mPt-BP were sacrificed at the end of experiments.” left out

[5] = Whole-body 195mPt radioactivity in mice measured using an ionization chamber; assay type: in vivo; settings: day 7
Text: Figure S3. ^195mPt radioactivity in mice. Percentage of injected dose (%ID) of ^195mPt-BP and ^195mPt(NO3)2(en) in mice, measured using an ionization chamber. ** P < 0.01; ****P < 0.0001 as determined by two-way ANOVA with a Bonferroni (multiple comparisons) post-hoc test.

[6] = test system: Ehrlich solid carcinoma; design: method as in doi:10.1007/s10967-015-4053-1; settings: cited from earlier work
[7] = test system: zebrafish embryos; assay: Phenotypic assessment of drug-treated zebrafish embryos; assay type: in vivo, zebrafish (Danio rerio); settings: Pt-BP 5-100 µM, cisplatin 30 µM
Method: The zebrafish (Danio rerio) strains were kept under standard conditions (28 °C in E3 buffer) until 48 hours post fertilization (hpf) as described previously. All animal experiments were conducted at larval stages before the point of independent feeding and were in agreement with the animal protection law (Tierschutzgesetz).
48 hpf wildtype embryos were separated into 6 groups (n = 20 embryos/group), i.e., control (untreated) and embryos treated with 5 µM, 10 µM, 50 µM, and 100 µM Pt-BP as well as 30 µM cisplatin. Both types of compounds were added externally to the medium and the embryos were incubated at 33 °C for the duration of the experiment. The embryos were assessed each day for phenotypic toxicity until 2 days post treatment (48 hpt) and imaged live in an Olympus MVX10 microscope.

[8] = design: method as in PMID 29037232; settings: cited from earlier work
[9] = In vivo biodistribution of cold Pt-species, Pt quantified by ICP-MS; design: species or system C57Bl/6N mice; settings: 24 h after i.v. injection, 2.5 mM Pt
Method: The Pt-BP and Pt(NO3)2(en) complexes were administered intravenously in the tail vein of C57BL/6N mice (n = 5 per each platinum complex). Sterile saline solution (0.9% NaCl) was used to dissolve platinum complexes. The concentration of injected Pt-BP or Pt(NO3)2(en) solutions was 2.5 mM platinum, calculated based on the maximum tolerated dose for cisplatin of 6 mg per kg body weight of the mice[37]. The mice were euthanized with CO2 24 h after injection, after which blood (approximately 600 mg per mouse), liver, spleen, kidneys, heart, lungs, and bones (femur, humerus, tibia, and spine) were harvested. Approximately half of the tissues were prepared for inductively coupled plasma-mass spectrometry (ICP-MS) analysis by digestion in 65% (v/v) nitric acid at 75 °C for approximately three days until the tissues were digested completely. Each tissue was cut into three samples and the samples were weighed prior to digestion in nitric acid. The digested solutions were diluted with up to 6 ml of Milli-Q water to obtain 2% (v/v) nitric acid in order to measure platinum concentrations by ICP-MS (X series I, Thermo Electron Corporation). The detection limit for determining platinum concentration with ICP-MS was 1 ppb. The standard solutions were prepared from 1000 mg·1^−1 platinum ICP standard Certipur (1.70341.0100, Merck) ranging from 1 ppb to 2500 ppb. The measured isotopes for platinum were ^194Pt, ^195Pt, ^196Pt, and ^198Pt. Furthermore, scandium (^45Sc) was added as an internal standard, which was prepared with 1000 mg·1^−1 scandium standard Certipur (1.19513.0100, Merck) to correct for matrix effects and long-term fluctuations of the measurement signal. The platinum concentrations in the various tissues were calculated relative to 1 mg of the specific tissue and represented as ng Pt/mgtissue. Three replicates of Pt-BP and Pt(NO3)2(en) solutions with volumes and platinum concentrations identical to the solutions injected to the mice (200 µl and 2.5 mM platinum, respectively) were also analyzed for their platinum content using ICP-MS as control. The percentage of injected dose (%ID) of Pt-BP and Pt(NO3)2(en) in each mouse tissue 24 h after injection was calculated by dividing the total amount of platinum per tissue through the total amount of platinum detected in the control solutions[52].

[10] = test system: genomic DNA; assay: Pt-DNA adducts quantification using High Resolution ICP-MS; assay type: in vivo, C57Bl/6N mice; settings: 24 h after i.v. injection
Text: The remaining half of the tissues from all mice were dissected and weighed for DNA extraction. DNA was isolated using DNeasy Blood & Tissue Kit (Qiagen, USA) for soft tissue and ChargeSwitch® gDNA Plant Kit (Thermofisher, USA) for bone samples. The DNA was digested with DNase I Solution (Thermofisher, USA) and filtered using 0.2 µm acrodisc GHP before analysis for Pt content using high resolution-ICP-MS (Element2, Thermo Finnigan). The detection limit for determining the platinum concentration was 2 ng/l. The standard solutions were prepared from 1000 mg·1^−1 platinum ICP standard Certipur (1.70341.0100, Merck) ranging from 5 ppt to 10 ppb. The selected isotopes for platinum were ^194Pt and ^195Pt. Furthermore, thallium (Tl) was added as an internal standard and determined at a molecular mass of 205 Da, which was prepared using a 1000 mg·1^−1 thallium standard (CGTL-1, Inorganic Ventures) to correct for matrix effects and long-term fluctuations of the analytical signal. The Pt-DNA adduct concentration is represented as percentage of Pt involved in adduct formation to the total amount of Pt accumulated in the specific tissue.

SMILES: NCCN.NCCN.O.O.O.O=S(=O)([O-])O.[NH3+]CC1(O)P2(=O)[O][195Pt][O]P1(=O)[O][195Pt][O]2 (stereo not drawn) [^195mPt-BP]
- uptake in femur ([1]; gamma counting after 7 days): 3.1 ± 0.37 %ID/g
- uptake in humerus ([1]; gamma counting after 7 days): 2.53 ± 0.33 %ID/g
- uptake in kidneys ([1]; gamma counting after 7 days): 0.43 ± 0.16 %ID/g
- uptake in soft tissues except kidneys ([1]; gamma counting after 7 days): < 0.11 %ID/g
- uptake in tibia ([1]; gamma counting after 7 days): 2.86 ± 0.46 %ID/g
- hard-to-soft tissue uptake ratio ([2]; 1 h, excluding bladder uptake): 3.3
- hard-to-soft tissue uptake ratio ([2]; 24 h): 6
- hard-to-soft tissue uptake ratio ([2]; 72 h): 6.7
- uptake in bone (hard tissue) ([2]; micro-SPECT/CT, 1 h p.i.): 1.8 ± 0.25 %I.D/g
- uptake in soft tissue ([2]; micro-SPECT/CT, 1 h p.i.): 0.93 ± 0.27 %I.D/g
- uptake in soft tissue ([2]; micro-SPECT/CT, 24 h): 0.18 ± 0.03 %I.D/g
- uptake in hot spots in bone (ROI 75% of maximum intensity) compared to 195mPt(NO3)2(en) ([2]; micro-SPECT/CT, all time points): twofold increased uptake
- uptake in bone (hard tissue) ([2]; micro-SPECT/CT, from 24 h until day 7): 1.0 ± 0.12 %I.D/g
- Pt not co-localized with Ca (Pt in soft tissue of the proximal tibia) ([3]; Fig. 4C): 20%
- accumulation of Pt in bone compared to 195mPt(NO3)2(en) ([3]; Fig. 4C): almost a fourfold increased accumulation
- percentage of Pt co-localized with calcium [3]: 73.5%
- body weight and behavioral changes [4]: no behavioral or body changes were observed
- Pt-based toxicity ([4]; over a period of 7 days): did not observe any Pt-based toxicity
- whole-body radioactivity [5]: 2 %ID

SMILES: N.N.[Cl][Pt][Cl] [^195mPt-cisplatin]
- inhibition of tumor growth, more effective compared to non-radioactive cisplatin [6]: 30%

SMILES: N.N.[Cl][Pt][Cl] [cisplatin]
- visual inspection of kidneys based on size and shape [7]: apparent shrinkage
- rapid weight loss followed by recovery within a week ([8]; mice at maximum tolerated dose): ~ 10%
- maximum tolerated dose ([8]; mice): 6 mg/kg

SMILES: NCCN.O=[N+]([O-])[O-].O=[N+]([O-])[O-].[Pt+2] [Pt(NO3)2(en), reference compound]
- Pt uptake in hard tissue [9]: 2.69 ± 0.26 %ID/g
- Pt uptake in kidney [9]: 3.38 ± 0.28 %ID/g
- Pt uptake in liver [9]: 1.54 ± 0.33 %ID/g
- Pt uptake in spleen [9]: 0.38 ± 0.04 %ID/g
- Pt accumulation in hard tissue (bone) ([9]; normalized for tissue weight): ~ 1 ng Pt/mg tissue
- Pt-DNA adduct formation relative to total Pt uptake, kidney [10]: 4.8%
- Pt-DNA adduct formation relative to total Pt uptake, spleen [10]: 9.8%

SMILES: NCCN.O=[N+]([O-])[O-].O=[N+]([O-])[O-].[195Pt+2] [^195mPt(NO3)2(en), reference compound]
- uptake in bones (femur, tibia, humerus) ([1]; gamma counting after 3 days): 1.4 ± 0.15 %ID/g
- uptake in kidneys ([1]; gamma counting after 3 days): 3.95 ± 0.24 %ID/g
- uptake in liver ([1]; gamma counting after 3 days): 3.22 ± 0.28 %ID/g
- uptake in lungs ([1]; gamma counting after 3 days): 1.08 ± 0.16 %ID/g
- uptake in spleen ([1]; gamma counting after 3 days): 2.76 ± 0.67 %ID/g
- hard-to-soft tissue uptake ratio ([2]; 1 h, excluding bladder uptake): 1
- hard-to-soft tissue uptake ratio ([2]; 24 h): 1.2
- hard-to-soft tissue uptake ratio ([2]; 72 h): 1.2
- uptake in bone (hard tissue) ([2]; micro-SPECT/CT, 1 h p.i.): 1.5 ± 0.1 %I.D/g
- uptake in soft tissue ([2]; micro-SPECT/CT, 1 h p.i.): 1.43 ± 0.21 %I.D/g
- Pt not co-localized with Ca (Pt in soft tissue of the proximal tibia) ([3]; Fig. 4C): 10%
- percentage of Pt co-localized with calcium [3]: 37.3%
- co-localization of Pt with Ca relative to that of 195mPt-BP ([3]; total amount of Pt, Fig. 4C): 27%
- body weight and behavioral changes [4]: significant body weight loss
- weight loss ([4]; humane end point, euthanized after 3 days): more than 20%
